In the supplement of paper PMC10883282:
Structures can show the parent of a compound that is named as a salt. ± gives the standard deviation of the averaged measurements.

System: VA-ES-BJ
Assay: relative viability vs DMSO control (72 h) (fraction); higher = more viable cells
Procedure, shortened: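 Relative viability was measured with ATPLite and expressed as percent growth, averaged across up to triplicate wells. Sarcoma cell lines had been seeded in 384-well plates to reach 80–90% confluence, dosed after 24 h, and incubated 72 h at 37 °C, 5% CO2. All data were rescaled on a scale where 1 is full and 0 is none.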

| SMILES | relative viability (0.00017 µM) | relative viability (0.00051 µM) | relative viability (0.00152 µM) | relative viability (0.00457 µM) | relative viability (0.01372 µM) | relative viability (0.04115 µM) | relative viability (0.1235 µM) | relative viability (0.3704 µM) | relative viability (1.111 µM) | relative viability (3.333 µM) | relative viability (10 µM) |
| --- | --- | --- | --- | --- | --- | --- | --- | --- | --- | --- | --- |
| O=C(Nc1cnn2ccc(N3CCC[C@@H]3c3cc(F)ccc3F)nc12)N1CC[C@H](O)C1 [Larotrectinib] | 1.05 ± 0.058 | 1.07 ± 0.037 | 1.04 ± 0.04 | 1.06 ± 0.044 | 1.04 ± 0.017 | 1.02 ± 0.046 | 1 ± 0.04 | 0.99 ± 0.022 | 1.02 ± 0.036 | 0.989 ± 0.043 | 0.994 ± 0.043 |
| C[C@@H]1COCCN1c1cc(-c2ccnn2C)c2ccnc(-c3ccn[nH]3)c2n1 | 1.02 ± 0.024 | 1.02 ± 0.03 | 1.01 ± 0.0075 | 1.05 ± 0.018 | 0.97 ± 0.07 | 0.739 ± 0.039 | 0.464 ± 0.038 | 0.212 ± 0.015 | 0.191 ± 0.0065 | 0.19 ± 0.015 | 0.173 ± 0.019 |
| CC(C)N1CCN(Cc2cnc(-c3cc(-c4cccc5[nH]ccc45)cc4[nH]ncc34)o2)CC1 [Nemiralisib] | 0.985 ± 0.032 | 0.987 ± 0.045 | 0.981 ± 0.047 | 1.01 ± 0.04 | 0.96 ± 0.026 | 0.965 ± 0.041 | 0.982 ± 0.038 | 0.9285 ± 0.0062 | 0.901 ± 0.049 | 0.811 ± 0.017 | 0.655 ± 0.038 |
| COc1cccc2c1C(=O)c1c(O)c3c(c(O)c1C2=O)C[C@@](O)(C(=O)CO)C[C@@H]3O[C@H]1C[C@H](N)[C@H](O)[C@H](C)O1 [Doxorubicin Hydrochloride] | 1.03 ± 0.017 | 1.06 ± 0.08 | 1.03 ± 0.05 | 0.99 ± 0.033 | 0.857 ± 0.064 | 0.629 ± 0.028 | 0.386 ± 0.016 | 0.164 ± 0.012 | 0.189 ± 0.0067 | 0.143 ± 0.035 | 0.126 ± 0.011 |
| Nc1cc(C(F)(F)F)c(-c2cc(N3CCOCC3)nc(N3CCOCC3)n2)cn1 [Buparlisib] | 1.01 ± 0.043 | 1 ± 0.053 | 0.999 ± 0.027 | 1.01 ± 0.032 | 0.997 ± 0.035 | 0.983 ± 0.055 | 0.875 ± 0.058 | 0.663 ± 0.018 | 0.316 ± 0.0056 | 0.189 ± 0.0041 | 0.1818 ± 0.0013 |
| Cc1cc(Nc2ncnc3ccc(NC4=NC(C)(C)CO4)cc23)ccc1Oc1ccn2ncnc2c1 [Tucatinib] | 1.09 ± 0.036 | 1.058 ± 0.0029 | 1.07 ± 0.032 | 1.04 ± 0.015 | 1.02 ± 0.02 | 1.03 ± 0.043 | 1.02 ± 0.089 | 1.01 ± 0.058 | 1.03 ± 0.023 | 1.03 ± 0.049 | 1.01 ± 0.023 |
| Cc1nc(-c2cn3c(n2)-c2ccc(-c4cnn(C(C)(C)C(N)=O)c4)cc2OCC3)n(C(C)C)n1 [Taselisib] | 1.01 ± 0.045 | 1.01 ± 0.03 | 1.02 ± 0.071 | 0.971 ± 0.048 | 0.943 ± 0.038 | 0.844 ± 0.039 | 0.75 ± 0.06 | 0.616 ± 0.056 | 0.379 ± 0.013 | 0.293 ± 0.028 | 0.144 ± 0.15 |
| CN1CCC(COc2cnc(-c3cccc(Cn4nc(-c5cccc(C#N)c5)ccc4=O)c3)nc2)CC1 [Tepotinib] | 1.07 ± 0.019 | 1.06 ± 0.021 | 1.02 ± 0.033 | 1.05 ± 0.044 | 1.02 ± 0.023 | 0.943 ± 0.044 | 0.869 ± 0.021 | 0.866 ± 0.04 | 0.869 ± 0.067 | 0.845 ± 0.045 | 0.869 ± 0.041 |
| CNC(=O)c1cc(Oc2ccc(NC(=O)Nc3ccc(Cl)c(C(F)(F)F)c3)c(F)c2)ccn1 [Regorafenib] | 1.13 ± 0.018 | 1.15 ± 0.032 | 1.1 ± 0.019 | 1.083 ± 0.0058 | 1.11 ± 0.035 | 1.08 ± 0.023 | 1.18 ± 0.048 | 1.19 ± 0.08 | 1.21 ± 0.072 | 1.24 ± 0.12 | 0.684 ± 0.048 |
| CCCS(=O)(=O)Nc1ccc(F)c(C(=O)c2c[nH]c3ncc(-c4ccc(Cl)cc4)cc23)c1F [Vemurafenib] | 1.09 ± 0.048 | 1.08 ± 0.058 | 1.04 ± 0.063 | 1.06 ± 0.039 | 1.074 ± 0.0083 | 1.06 ± 0.042 | 1.09 ± 0.017 | 1.12 ± 0.056 | 1.12 ± 0.043 | 1.02 ± 0.042 | 0.769 ± 0.03 |
| COc1c(OCCCN2CCOCC2)ccc2c1N=C(NC(=O)c1cnc(N)nc1)N1CCN=C21 [Copanlisib] | 1.09 ± 0.027 | 0.983 ± 0.071 | 1.066 ± 0.0069 | 0.74 ± 0.026 | 0.594 ± 0.029 | 0.484 ± 0.017 | 0.42 ± 0.022 | 0.396 ± 0.041 | 0.406 ± 0.019 | 0.394 ± 0.095 | 0.304 ± 0.16 |
| CC(=O)Nc1cccc(-n2c(=O)n(C3CC3)c(=O)c3c(Nc4ccc(I)cc4F)n(C)c(=O)c(C)c32)c1 [Trametinib] | 1.08 ± 0.043 | 1.04 ± 0.026 | 1.02 ± 0.034 | 0.961 ± 0.038 | 0.871 ± 0.028 | 0.811 ± 0.032 | 0.738 ± 0.029 | 0.656 ± 0.022 | 0.628 ± 0.018 | 0.604 ± 0.019 | 0.572 ± 0.016 |
| COCc1c(-c2cc3cc(C)cc(OC)c3s2)c2c(N)ncnn2c1CN1CCNC(=O)C1 [Rogaratinib] | 1.074 ± 0.0046 | 1.07 ± 0.037 | 1.05 ± 0.036 | 1.05 ± 0.021 | 1.06 ± 0.021 | 1.03 ± 0.042 | 1.04 ± 0.081 | 1.02 ± 0.075 | 1.02 ± 0.063 | 0.908 ± 0.087 | 0.568 ± 0.031 |
| COc1cc2/c(=N/c3ccc(Br)cc3F)nc[nH]c2cc1OCC1CCN(C)CC1 [Vandetanib] | 1.04 ± 0.044 | 1.04 ± 0.027 | 1.03 ± 0.043 | 1.05 ± 0.073 | 1.06 ± 0.022 | 1.1 ± 0.04 | 1.11 ± 0.029 | 1.11 ± 0.018 | 1.08 ± 0.02 | 0.93 ± 0.035 | 0.239 ± 0.0077 |
| CNC(=O)c1ccc(-c2cnc3ncc(Cc4ccc5ncccc5c4)n3n2)cc1F [Capmatinib] | 1.06 ± 0.068 | 1.03 ± 0.042 | 1.01 ± 0.062 | 0.943 ± 0.04 | 0.87 ± 0.016 | 0.844 ± 0.03 | 0.839 ± 0.01 | 0.844 ± 0.017 | 0.878 ± 0.059 | 0.88 ± 0.035 | 0.855 ± 0.036 |
| CCN1CCN(Cc2ccc(Nc3ncc(F)c(-c4cc(F)c5nc(C)n(C(C)C)c5c4)n3)nc2)CC1 [Abemaciclib] | 1.02 ± 0.014 | 1.03 ± 0.0088 | 1.015 ± 0.0082 | 1 ± 0.019 | 0.994 ± 0.037 | 0.92 ± 0.042 | 0.779 ± 0.032 | 0.694 ± 0.018 | 0.681 ± 0.023 | 0.562 ± 0.021 | 0.427 ± 0.056 |
| C=CC(=O)N1CCC[C@@H](n2nc(-c3ccc(Oc4ccccc4)cc3)c3c(N)ncnc32)C1 [Ibrutinib] | 1.09 ± 0.046 | 1.08 ± 0.035 | 1.08 ± 0.089 | 1.06 ± 0.026 | 1.08 ± 0.05 | 1.09 ± 0.044 | 1.07 ± 0.068 | 1.07 ± 0.092 | 1.13 ± 0.056 | 1.1 ± 0.036 | 0.989 ± 0.013 |
| Cn1cnc2c(F)c(Nc3ccc(Br)cc3F)c(C(=O)NOCCO)cc21 [Binimetinib] | 1.06 ± 0.011 | 1.09 ± 0.032 | 1.07 ± 0.037 | 1.02 ± 0.028 | 1.02 ± 0.044 | 0.966 ± 0.027 | 0.946 ± 0.071 | 0.921 ± 0.069 | 0.879 ± 0.046 | 0.794 ± 0.041 | 0.689 ± 0.058 |
